Test results reported in US20260347364A1, “PYRAZOLO[4,3-F]QUINAZOLINE DERIVATIVES AS MODULATORS OF G12D MUTANT KRAS USEFUL FOR THE TREATMENT OF CANCER” (JAZZ PHARMACEUTICALS IRELAND LTD., priority 2023, published 2026).

Experiments:
KRAS G12D = target: T1, KRAS G12D (Homo sapiens, UniProt P01116, G12D); experiment: HTRF nucleotide exchange assay, KRAS G12D; assay type: biochemical; conditions: class symbols; for IC50: HTRF nucleotide exchange assay (NEA)
T1 construct: aa1-188 KRAS WT, HRAS WT, NRAS WT, or KRAS containing the G12D

KRAS WT = target: T2, KRAS WT (Homo sapiens, UniProt P01116); experiment: HTRF nucleotide exchange assay, KRAS WT; assay type: biochemical; conditions: class symbols; for IC50: HTRF nucleotide exchange assay (NEA)
T2 construct: aa1-188 KRAS WT

| Compound | IC50 (KRAS G12D) [nM] | KRAS^WT NEA (KRAS WT) | IC50 (KRAS WT) [nM] | KRAS^G12D NEA (KRAS G12D) |
| --- | --- | --- | --- | --- |
| Cn1cc2c(n1)c(-c1cccc3sc(N)c(C#N)c13)cc1nc(OC[C@@]34CCCN3C[C@H](F)C4)nc(N3CC4CCC(C3)N4)c12 [Example 86, 2-amino-4-[9-(3,8-diazabicyclo[3.2.1]octan-3-yl)-7-[[(2R,8S)-2-fluoro-1,2,3,5,6,7-hexahydropyrrolizin-8-yl]methoxy]-2-methyl-pyrazolo[4,3-f]quinazolin-4-yl]benzothiophene-3-carbonitrile] | ≤ 10 | D (<49% inhibition at 10 μM) | – | – |
| CCc1c(F)ccc2cc(O)cc(-c3c(C)c4nc(OC[C@@H]5C[C@@H](F)CN5)nc(N5CCOCC(C)(O)C5)c4c4cn(C)nc34)c12 (stereo partly drawn) [Example 140, 4-[4-(8-ethyl-7-fluoro-3-hydroxy-1-naphthyl)-2,5-dimethyl-7-[[(2S,4R)-4-fluoropyrrolidin-2-yl]methoxy]pyrazolo[4,3-f]quinazolin-9-yl]-6-methyl-1,4-oxazepan-6-ol] | ≤ 10 | – | ≤ 10 | – |
| CCc1c(F)ccc2cc(O)cc(-c3c(C)c4nc(OC[C@@]56CCCN5C[C@H](F)C6)nc(N5CCCn6nc(C(=O)N7CCOCC7)cc6C5)c4c4cn(C)nc34)c12 [Example 209, [5-[4-(8-ethyl-7-fluoro-3-hydroxy-1-naphthyl)-7-[[(2R,8S)-2-fluoro-1,2,3,5,6,7-hexahydropyrrolizin-8-yl]methoxy]-2,5-dimethyl-pyrazolo[4,3-f]quinazolin-9-yl]-4,6,7,8-tetrahydropyrazolo[1,5-a][1,4]diazepin-2-yl]-morpholino-methanone] | ≤ 10 | – | ≤ 10 | – |
| CCc1c(F)ccc2cc(O)cc(-c3c(F)c4nc(OC[C@@]56CCCN5C[C@H](F)C6)nc(N5CCC[C@@H](O)C5)c4c4cn(C)nc34)c12 [Example 178, (3R)-1-[4-(8-ethyl-7-fluoro-3-hydroxy-1-naphthyl)-5-fluoro-2-methyl-7-[[(2R,8S)-2-fluoro-1,2,3,5,6,7-hexahydropyrrolizin-8-yl]methoxy]pyrazolo[4,3-f]quinazolin-9-yl]piperidin-3-ol] | ≤ 10 | – | ≤ 10 | – |
| CCc1c(F)ccc2cc(O)cc(-c3c(C)c4nc(OCC5(CN6CCOCC6)CC5)nc(N5CCOCC(C)(O)C5)c4c4cn(C)nc34)c12 (centres unmarked) [Example 149, 4-[4-(8-ethyl-7-fluoro-3-hydroxy-1-naphthyl)-2,5-dimethyl-7-[[1-(morpholinomethyl)cyclopropyl]methoxy]pyrazolo[4,3-f]quinazolin-9-yl]-6-methyl-1,4-oxazepan-6-ol] | ≤ 10 | – | ≤ 10 | – |
| CCc1c(F)ccc2cc(O)cc(-c3c(C)c4nc(OCC5(CF)COC5)nc(N5CC6CCC5CN6)c4c4cn(C)nc34)c12 (centres unmarked) [Example 240, 4-[9-(2,5-diazabicyclo[2.2.2]octan-2-yl)-7-[[3-(fluoromethyl)oxetan-3-yl]methoxy]-2,5-dimethyl-pyrazolo[4,3-f]quinazolin-4-yl]-5-ethyl-6-fluoro-naphthalen-2-ol] | 10 to 100 | – | 100 to 10000 | – |
| CCc1c(F)ccc2cc(O)cc(-c3c(C)c4nc(OCC5(CN6CCCC6)CC5)nc(N5CCOCC(C)(O)C5)c4c4cn(C)nc34)c12 (centres unmarked) [Example 146, 4-[4-(8-ethyl-7-fluoro-3-hydroxy-1-naphthyl)-2,5-dimethyl-7-[[1-(pyrrolidin-1-ylmethyl)cyclopropyl]methoxy]pyrazolo[4,3-f]quinazolin-9-yl]-6-methyl-1,4-oxazepan-6-ol] | ≤ 10 | – | ≤ 10 | – |
| CN(C)C(=O)c1cc2n(n1)CCCN(c1nc(OC[C@@]34CCCN3C[C@H](F)C4)nc3cc(-c4cc(O)ccc4C#N)c4nn(C)cc4c13)C2 [Example 62] | 10 to 100 | – | 100 to 10000 | – |
| CCc1c(F)ccc2cc(O)cc(-c3c(F)c4nc(OCC5(C#N)CCOC5)nc(N5CC6CCC(C5)N6)c4c4cn(C)nc34)c12 (centres unmarked) [Example 168, 3-[[9-(3,8-diazabicyclo[3.2.1]octan-3-yl)-4-(8-ethyl-7-fluoro-3-hydroxy-1-naphthyl)-5-fluoro-2-methyl-pyrazolo[4,3-f]quinazolin-7-yl]oxymethyl]tetrahydrofuran-3-carbonitrile] | ≤ 10 | – | 100 to 10000 | – |
| CCc1c(F)ccc2cc(O)cc(-c3c(F)c4nc(OCC5(CN(C)CC)CC5)nc(N5CCOCC(C)(O)C5)c4c4cn(C)nc34)c12 (centres unmarked) [Example 212, 4-[4-(8-ethyl-7-fluoro-3-hydroxy-1-naphthyl)-7-[[1-[[ethyl(methyl)amino]methyl]cyclopropyl]methoxy]-5-fluoro-2-methyl-pyrazolo[4,3-f]quinazolin-9-yl]-6-methyl-1,4-oxazepan-6-ol] | ≤ 10 | – | ≤ 10 | – |
| CCc1c(F)ccc2cc(O)cc(-c3c(C)c4nc(OC[C@@H]5CCN5C)nc(N5CCOCC(C)(O)C5)c4c4cn(C)nc34)c12 (stereo partly drawn) [Example 143, 4-[4-(8-ethyl-7-fluoro-3-hydroxy-1-naphthyl)-2,5-dimethyl-7-[[(2S)-1-methylazetidin-2-yl]methoxy]pyrazolo[4,3-f]quinazolin-9-yl]-6-methyl-1,4-oxazepan-6-ol] | ≤ 10 | – | ≤ 10 | – |
| CCc1c(F)ccc2cc(O)cc(-c3c(F)c4nc(OCC5(C)CC(OC)CN5)nc(N5CCOCC(C)(O)C5)c4c4cn(C)nc34)c12 (centres unmarked) [Example 151, 4-[4-(8-ethyl-7-fluoro-3-hydroxy-1-naphthyl)-5-fluoro-7-[(4-methoxy-2-methyl-pyrrolidin-2-yl)methoxy]-2-methyl-pyrazolo[4,3-f]quinazolin-9-yl]-6-methyl-1,4-oxazepan-6-ol] | ≤ 10 | – | ≤ 10 | – |
| CCc1c(F)ccc2cc(O)cc(-c3c(F)c4nc(OC[C@@]56CCCN5C[C@H](F)C6)cc(N5CCCOCC5)c4c4cn(C)nc34)c12 [Example 45, 5-ethyl-6-fluoro-4-[5-fluoro-2-methyl-9-(1,4-oxazepan-4-yl)-7-[[(2R,8S)-2-fluoro-1,2,3,5,6,7-hexahydropyrrolizin-8-yl]methoxy]pyrazolo[4,3-f]quinolin-4-yl]naphthalen-2-ol] | 100 to 10000 | – | 100 to 10000 | – |
| CCc1c(F)ccc2cc(O)cc(-c3c(F)c4nc(OCC5(CF)COC5)nc(N5CCCn6nc(C(=O)N(C)C)cc6C5)c4c4cn(C)nc34)c12 [Example 206, 5-[4-(8-ethyl-7-fluoro-3-hydroxy-1-naphthyl)-5-fluoro-7-[[3-(fluoromethyl)oxetan-3-yl]methoxy]-2-methyl-pyrazolo[4,3-f]quinazolin-9-yl]-N,N-dimethyl-4,6,7,8-tetrahydropyrazolo[1,5-a][1,4]diazepine-2-carboxamide] | ≤ 10 | – | 10 to 100 | – |
| CCc1c(F)ccc2cc(O)cc(-c3c(F)c4nc(OCC56COC(COC)(C5)C6)nc(N5CCOCC(C)(O)C5)c4c4cn(C)nc34)c12 (centres unmarked) [Example 165, 4-[4-(8-ethyl-7-fluoro-3-hydroxy-1-naphthyl)-5-fluoro-7-[[1-(methoxymethyl)-2-oxabicyclo[2.1.1]hexan-4-yl]methoxy]-2-methyl-pyrazolo[4,3-f]quinazolin-9-yl]-6-methyl-1,4-oxazepan-6-ol] | ≤ 10 | – | 10 to 100 | – |

More lines, now with the values ahead:

| IC50 (KRAS G12D) [nM] | KRAS^WT NEA (KRAS WT) | IC50 (KRAS WT) [nM] | KRAS^G12D NEA (KRAS G12D) | Compound |
| --- | --- | --- | --- | --- |
| 10 to 100 | – | 10 to 100 | – | CCc1c(F)ccc2cc(O)cc(-c3cc4nc(OC[C@@]56CCCN5C[C@H](F)C6)nc(N5CCOCC(O)(C(F)(F)F)C5)c4c4cn(C)nc34)c12 (stereo partly drawn) [Example 123, 4-[4-(8-ethyl-7-fluoro-3-hydroxy-1-naphthyl)-2-methyl-7-[[(2R,8S)-2-fluoro-1,2,3,5,6,7-hexahydropyrrolizin-8-yl]methoxy]pyrazolo[4,3-f]quinazolin-9-yl]-6-(trifluoromethyl)-1,4-oxazepan-6-ol] |
| 100 to 10000 | – | 100 to 10000 | – | CCc1c(F)ccc2cc(O)cc(-c3cc4nc(OC[C@@]56CCCN5C[C@H](F)C6)nc(N5CCCC6(CCC(O)C6)C5)c4c4cn(C)nc34)c12 (stereo partly drawn) [Example 200, 7-[4-(8-ethyl-7-fluoro-3-hydroxy-1-naphthyl)-2-methyl-7-[[(2R,8S)-2-fluoro-1,2,3,5,6,7-hexahydropyrrolizin-8-yl]methoxy]pyrazolo[4,3-f]quinazolin-9-yl]-7-azaspiro[4.5]decan-3-ol] |
| ≤ 10 | – | ≤ 10 | – | CCc1c(F)ccc2cc(O)cc(-c3c(F)c4nc(OC[C@@]56CCCN5C[C@H](F)C6)nc(N5CCCOCC5)c4c4cn(C)nc34)c12 [Example 88, 5-ethyl-6-fluoro-4-[5-fluoro-2-methyl-9-(1,4-oxazepan-4-yl)-7-[[(2R,8S)-2-fluoro-1,2,3,5,6,7-hexahydropyrrolizin-8-yl]methoxy]pyrazolo[4,3-f]quinazolin-4-yl]naphthalen-2-ol] |
| 100 to 10000 | – | 10 to 100 | – | CCc1c(F)ccc2cc(O)cc(-c3cc4nc(OC[C@@]56CCCN5C[C@H](F)C6)nc(N5CCC(CO)CC5)c4c4cn(C)nc34)c12 [Example 113, 5-ethyl-6-fluoro-4-[9-[4-(hydroxymethyl)-1-piperidyl]-2-methyl-7-[[(2R,8S)-2-fluoro-1,2,3,5,6,7-hexahydropyrrolizin-8-yl]methoxy]pyrazolo[4,3-f]quinazolin-4-yl]naphthalen-2-ol] |
| – | D (<49% inhibition at 10 μM) | – | D (<49% inhibition at 10 μM) | Cn1cc2c(n1)c(-c1c(O)cccc1F)cc1nc(OC[C@@]34CCCN3C[C@H](F)C4)nc(N3CCCOCC3)c12 [Example 4, 3-fluoro-2-[2-methyl-9-(1,4-oxazepan-4-yl)-7-[[(2R,8S)-2-fluoro-1,2,3,5,6,7-hexahydropyrrolizin-8-yl]methoxy]pyrazolo[4,3-f]quinazolin-4-yl]phenol] |
| ≤ 10 | – | 10 to 100 | – | C#Cc1c(F)ccc2cc(O)cc(-c3cc4nc(OC[C@@]56CCCN5C[C@H](F)C6)nc(N5CCCNCC5)c4c4cn(C)nc34)c12 (single isomer, unassigned) [Example 36] |
| ≤ 10 | – | ≤ 10 | – | CCc1c(F)ccc2cc(O)cc(-c3cc4nc(OC[C@@]56CCCN5C[C@H](F)C6)nc(N5CCOCC(C)C5)c4c4cn(C)nc34)c12 (stereo partly drawn) [Example 121, 5-ethyl-6-fluoro-4-[2-methyl-9-(6-methyl-1,4-oxazepan-4-yl)-7-[[(2R,8S)-2-fluoro-1,2,3,5,6,7-hexahydropyrrolizin-8-yl]methoxy]pyrazolo[4,3-f]quinazolin-4-yl]naphthalen-2-ol] |
